The test system of test [1] is H3K27 methylation in G401 cell. The test is described as follows: ELISA (H3K27 methylation) assay in G401 cells. The test is classed as cell-based, human. The settings on record: Homo sapiens, G-401, read-out: (c) IC50, ELISA Qualified. As for the experimental part:
Compounds of the present invention were assessed for their ability to inhibit PRC2 activity in a pentameric complex of EZH2, SUZ12, EED, Rbap48 and AEBP in biochemical assays. The ability of compounds of the present invention to inhibit cellular activity of PRC2 was assessed by analysing histone H3 lysine 27 methylation in human cell lines. The ability of compounds of the present invention to inhibit cancers was derived from their ability to modulate activity in human cancer cell lines bearing specific dependence to PRC2 activity to maintain cancerous growth.
ELISA (H3K27 Methylation) Assay
Representative compounds of the present invention were serially and separately diluted 3-fold in DMSO to obtain a total of eight or twelve concentrations. Then the compounds were added to G401 cell cultured in 384-well plate at 1:500 dilution to obtain the highest concentration of 20 μM. The cells were further cultured for 48 h before ELISA procedure.
Histone extraction: Cells, in 384-well plate, were washed with PBS (10×PBS buffer (80 g NaCl (Sigma, S3014), 2 g KCl (Sigma, 60128), 14.4 g Na2HPO4 (Sigma, S5136), 2.4 g KH2PO4 (Sigma, P9791) to 1 L water, pH to 7.4) and lysed with the addition of lysis buffer (0.4N HCl; 45 μL per well). The plate was gently agitated at 4° C. for 30 min. The cell lysate was neutralized with neutralization buffer (0.5 M sodium phosphate dibasic, pH 12.5, 1 mM DTT; 36 μL per well). The plate was agitated to ensure the lysates were well mixed prior to the ELISA protocol.
ELISA protocol: Cell lysates were transferred to the wells of a 384-well plate and the final volume was adjusted to 50 μL per well with PBS. The plate was sealed, centrifuged at 2,000 rpm for 2 min and incubated at 4° C. for about 16 h. The plate was washed with TBST buffer (1×TBS (10×TBS: 24.2 g Tris (Sigma, T6066), 80 g NaCl (Sigma, S3014) to 1 L of water and adjust pH to 7.6 with HCl) with 0.1% Tween-20). Blocking buffer (TBST, 5% BSA; 50 μL per well) was added and the plate was incubated for 1 h at rt. The blocking buffer was removed and primary antibody was added (30 μL per well). The following dilutions were performed with blocking buffer: for anti-H3K27me3 antibody (Cell Signaling Technology, #9733), dilution was 1:1000; for anti-H3K27me2 antibody (Cell Signaling Technology, #9288), dilution was 1:100; for anti-H3 antibody (Abcam, Cat #24834), dilution was 1:1000. The primary antibody was incubated in the plate at rt for 1 h. The wells were washed with TBST and incubated with secondary antibody for 1 h at rt. For secondary antibodies, the following dilutions were carried out with blocking buffer: anti-rabbit antibody (Jackson ImmunoResearch, #111-035-003), dilution was 1:2000; and anti-mouse antibody (Cell signaling technology, #7076), dilution was 1:1000. After 1 h of incubation at rt, the wells were washed with TBST. ECL substrate (Pierce, #34080) was added at 30 μL per well and the plates were centrifuged at 2,000 rpm for 2 min. The signal was read using a PerkinElmer Envision Reader. The H3K27 methylation readouts were normalized using H3 signal and then percentage inhibition was calculated against the samples treated with DMSO. The data were then fit to a dose response curve using the program Helios to get the IC50 values of the test compound.

In a further test the target is T1, EED (1-441)-His protein (Homo sapiens, UniProt O75530).
T1 construct: 30 nM EED (1-441)-His protein
The test is described as follows: EED-H3K27Me3 peptide competition binding assay by AlphaScreen. The procedure:
EED-H3K27Me3 Peptide Competition Binding Assay by AlphaScreen (α-Screen)
To assess the compounds' potency in the EED-H3K27Me3 competition binding assay, compounds were serially diluted 3-fold in DMSO to obtain a total of twelve concentrations. Then compounds at each concentration (75 nL of each) were transferred by Mosquito into a 384-well Perkin Elmer ProxiPlate 384 plus plates. 8 uL of solutions containing 30 nM EED (1-441)-His protein and 15 nM biotin-H3K27Me3 (19-33) peptide in the buffer (25 mM HEPES, pH 8, 0.02% Tween-20, 0.5% BSA) were added to the wells and then incubated with compound for 20 min. AlphaScreen detection beads mix was prepared immediately before use by mixing nickel chelate acceptor beads and streptavidin donor beads in a 1:1 ratio (Perkin Elmer, Product No. 6760619C/M/R) into the buffer described above. Then 4 μL of detection beads mix was added to the plate and incubate in the dark at the rt for 1 h. The final concentration of donor and acceptor beads was 10 μg/mL for each. Plates were read on EnVision (PerkinElmer) using the AlphaScreen setting adapted for optimal signal detection with a 615 nm filter, after sample excitation at 680 nm. The emission signal at 615 nm was used to quantify compounds inhibition. AlphaScreen signals were normalized based on the reading coming from the positive (maximum signal control) and negative controls (minimum signal control) to give percentage of activities left. The data were then fit to a dose response equation using the program Helios (Novartis) to get the IC50 values. Helios is a Novartis in-house assay data analysis software using the methods described by Normolle, D. P., Statistics in Medicine, 12:2025-2042 (1993); Formenko, I. et al, Computer Methods and Programs in Biomedicine, 82, 31-37 (2006); Sebaugh, J. L., Pharmaceutical Statistics, 10:128-134 (2011); Kelly, C. et al., Biometrics, 46(4):1071-1085 (1990); and Kahm, M. et al., Journal of Statistical Software, 33 (7): (2010) (grofit: Fitting Biological Growth Curves with R, pages 1-21, available at http://www.jstatsoft.org/).

Setting [2] is: read-out: (a) IC50, EED Alphascreen binding Qualified.

Results on 20 compounds are retold here after patent US10689378B2, “Triazolopyridine compounds and uses thereof” (Novartis AG, priority 2016, dated 2020).

Read-outs that look alike come from different tables or passages of the source.

T1 sequence (O75530 whole entry): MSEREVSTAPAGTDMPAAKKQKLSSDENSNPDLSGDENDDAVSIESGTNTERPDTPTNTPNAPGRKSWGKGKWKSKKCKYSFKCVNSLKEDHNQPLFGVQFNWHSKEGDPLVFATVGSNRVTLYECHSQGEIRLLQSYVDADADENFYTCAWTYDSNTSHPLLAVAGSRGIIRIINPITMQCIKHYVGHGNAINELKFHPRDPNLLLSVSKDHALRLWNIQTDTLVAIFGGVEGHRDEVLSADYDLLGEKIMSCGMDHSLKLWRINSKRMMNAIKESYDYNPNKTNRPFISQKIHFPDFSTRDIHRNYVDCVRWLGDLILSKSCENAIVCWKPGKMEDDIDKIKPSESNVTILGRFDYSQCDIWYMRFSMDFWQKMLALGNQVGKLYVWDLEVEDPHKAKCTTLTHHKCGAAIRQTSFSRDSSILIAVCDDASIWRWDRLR

With `COc1cccc(CNc2ccc(-c3ccc(CN(C)C)cc3)c3nncn23)c1` [Example 14, 8-(4-((dimethylamino)methyl)phenyl)-N-(3-methoxybenzyl)-[1,2,4] triazolo[4,3-a]pyridin-5-amine], the IC50 was 280 nM in test [1] and 325 nM on EED (1-441)-His protein (setting [2]).

Consider `CN(C)Cc1ccc(-c2ccc(NCc3ccccc3)n3cnnc23)cc1` [Example 17, N-benzyl-8-(4-((dimethylamino)methyl)phenyl)-[1,2,4]triazolo[4,3-a] pyridin-5-amine], for which the IC50 came out at 249 nM in test [1] and 234 nM at EED (1-441)-His protein (setting [2]).

For `COc1ccccc1CNc1ccc(-c2ccccc2)c2nncn12` [Example 23, N-(2-methoxybenzyl)-8-phenyl-[1,2,4]triazolo[4,3-a] pyridin-5-amine], the IC50 in test [1] was found to be 521 nM; on EED (1-441)-His protein (setting [2]), 180 nM. For `Cc1ccccc1CNc1ccc(-c2ccc(CN(C)C)cc2)c2nncn12` [Example 31, 8-(4-((dimethylamino)methyl)phenyl)-N-(2-methylbenzyl)-[1,2,4]triazolo[4,3-a]pyridin-5-amine], the values for the IC50 (in test [1]; on EED (1-441)-His protein (setting [2])) were 508 nM and 394 nM, respectively. On the same counts, the results for `CN(C)Cc1ccc(-c2ccc(NCc3cccc(F)c3)n3cnnc23)cc1` [Example 35, 8-(4-((dimethylamino)methyl)phenyl)-N-(3-fluorobenzyl)-[1,2,4] triazolo [4,3-a]pyridin-5-amine] are 3490 nM and 2570 nM. `CN(C)Cc1ccc(-c2ccc(NCc3ccccc3F)n3cnnc23)cc1` [Example 36, 8-(4-((dimethylamino)methyl)phenyl)-N-(2-fluorobenzyl)-[1,2,4] triazolo [4,3-a]pyridin-5-amine]: the IC50 in test [1] was determined as 937 nM; at EED (1-441)-His protein (setting [2]), 1010 nM. For `CN(C)Cc1ccc(-c2ccc(NCc3ccc(F)cc3)n3cnnc23)cc1` [Example 37, 8-(4-((dimethylamino)methyl)phenyl)-N-(4-fluorobenzyl)-[1,2,4]triazolo[4,3-a] pyridin-5-amine] the same measures were 1800 nM and 1520 nM. For `COc1ccccc1CNc1ccc(-c2ccccc2C)c2nncn12` [Example 46, N-(2-methoxybenzyl)-8-(o-tolyl)-[1,2,4]triazolo[4,3-a] pyridin-5-amine] the same measures were 529 nM and 160 nM. On the same counts, the results for `CN(C)Cc1ccc(-c2ccc(NCc3cccnc3)n3cnnc23)cc1` [Example 48, 8-(4-((dimethylamino)methyl)phenyl)-N-(pyridin-3-ylmethyl)-[1,2,4]triazolo[4,3-a]pyridin-5-amine] are 2280 nM and 4230 nM. For `COc1ccc(F)c(CNc2ccc(-c3ccc(CN(C)C)cc3)c3nncn23)c1` [Example 49, 8-(4-((dimethylamino)methyl)phenyl)-N-(2-fluoro-5-methoxybenzyl)-[1,2,4] triazolo[4,3-a]pyridin-5-amine], the results for the IC50 (in test [1]; on EED (1-441)-His protein (setting [2])) were 140 nM and 164 nM, respectively.

On to `COc1cncc(-c2ccc(NCc3ccccc3OC)n3cnnc23)c1` [Example 51, N-(2-methoxybenzyl)-8-(5-methoxypyridin-3-yl)-[1,2,4] triazolo[4,3-a]pyridin-5-amine], for which the concentration for half-maximal inhibition (IC50) in test [1] turned out to be 159 nM; on EED (1-441)-His protein (setting [2]), 127 nM. `COc1ccccc1CNc1ccc(-c2ccc(CN3CCCC3=O)cc2)c2nncn12` [Example 55, 1-(4-(5-((2-methoxybenzyl)amino)-[1,2,4]triazolo[4,3-a]pyridin-8-yl)benzyl) pyrrolidin-2-one]: the IC50 amounted to 44.1 nM in test [1] and 15.1 nM on EED (1-441)-His protein (setting [2]). For `COc1ccccc1CNc1ccc(-c2cncnc2)c2nncn12` [Example 58, N-(2-methoxybenzyl)-8-(pyrimidin-5-yl)-[1,2,4] triazolo[4,3-a]pyridin-5-amine] the same measures were 66.3 nM and 59.8 nM. As to `COc1cc(-c2ccc(NCc3ccccc3OC)n3cnnc23)ccn1` [Example 59, N-(2-methoxybenzyl)-8-(2-methoxypyridin-4-yl)-[1,2,4] triazolo[4,3-a]pyridin-5-amine], the IC50 in test [1] came out at 168 nM; at EED (1-441)-His protein (setting [2]) it was 31.6 nM. For `COc1ccccc1CNc1ccc(-c2ccc(CN3CCCC3)cc2)c2nncn12` [Example 60, N-(2-methoxybenzyl)-8-(4-(pyrrolidin-1-ylmethyl)phenyl)-[1,2,4]triazolo[4,3-a] pyridin-5-amine] the same measures were 56.5 nM and 40.2 nM.

`COc1ccccc1CNc1ccc(-c2ccc(N3CCOCC3)c(Cl)c2)c2nncn12` [Example 65, 8-(3-chloro-4-morpholinophenyl)-N-(2-methoxybenzyl)-[1,2,4] triazolo[4,3-a]pyridin-5-amine]: the IC50 was 11000 nM in test [1] and 1660 nM at EED (1-441)-His protein (setting [2]). On the same counts, the results for `COc1ccccc1CNc1ccc(-c2ccc(-c3nn[nH]n3)cc2)c2nncn12` [Example 74, 8-(4-(2H-tetrazol-5-yl)phenyl)-N-(2-methoxybenzyl)-[1,2,4]triazolo[4,3-a] pyridin-5-amine] are 4240 nM and 320 nM. For the compound `COc1ccccc1CNc1ccc(-c2cnc(N3CCN(C)CC3)c(Cl)c2)c2nncn12` [Example 75, 8-(5-chloro-6-(4-methylpiperazin-1-yl)pyridin-3-yl)-N-(2-methoxybenzyl)-[1,2,4] triazolo[4,3-a]pyridin-5-amine], the IC50 stood at 488 nM in test [1] and 132 nM on EED (1-441)-His protein (setting [2]). Turning to `COc1cccc(F)c1CNc1ccc(-c2ccc(S(=O)(=O)N(C)C)cc2)c2nncn12` [Example 79, 4-(5-((2-fluoro-6-methoxybenzyl)amino)-[1,2,4]triazolo[4,3-a]pyridin-8-yl)-N,N-dimethylbenzene sulfonamide], the IC50 came out at 78.5 nM in test [1] and 116 nM on EED (1-441)-His protein (setting [2]). Turning to `COc1cc(F)cc(F)c1CNc1ccc(-c2cnc(OC3CC3)nc2C)c2nncn12` [Example 344, 8-(2-cyclopropoxy-4-methylpyrimidin-5-yl)-N-(2,4-difluoro-6-methoxybenzyl)-[1,2,4]triazolo[4,3-a]pyridin-5-amine], the IC50 on EED (1-441)-His protein (EED-H3K27Me3 peptide competition, AlphaScreen, read-out: (a) IC50 EED Alphascreen binding Qualified) was found to be 25.5 nM.

Broadly, the IC50 is the concentration that inhibits the measured activity by half.
